# Data taken from US11591323B2, “Muscarinic agonists as non-steroidal and non-opioid analgesics and methods of use thereof” (Barry University, priority 2019, dated 2023).
# What was measured:
# [1] = tested on: ventral tegmental area (M5); assay: accumulation of IPX in dissipated rat ventral tegmental area; format: cell-based; settings: dissipated rat VTA, in words
# Description: Effects of compounds 6A and 7A were then measured ex vivo in dissipated rat tissues (FIG. 5). Accumulation of IPX was measured in dissipated brain cortex (rich in M1 & M3), submaxillary gland (M1 & M3), and ventral tegmental area (M5). Native tissues express about 10-times less muscarinic receptors than CHO cell lines. Accumulation of cAMP was measured in cerebellum (M2) and striatum (M4).
# Rat dissipated tissues: Suspension of dissipated tissues from rat brain cortex, cerebellum, striatum, ventral tegmental area (VTA) and submaxillary glands was prepared as described previously in supplementary methods. Adult 8-weeks old male Wistar rats were scarified by cervical dislocation in accordance with current legislative and guidelines under permission of Czech Ministry of Agriculture 16OZ23113/2017-17214. Tissues were dissected immediately. Submaxillary glands were minced by scissors. Tissues were dispersed by incubation for 15 min at 37° C. in KHB supplemented with trypsin and trituration every 5 min. Large undissipated parts were removed by cell mesh. […]
# Measurements of the production of cAMP and inositol phosphates: Levels of second messengers cAMP and inositol phosphates were determined in radiochemical chromatography assays as described previously. […] Samples were applied to alumina columns (1.5 g of alumina per column), washed with 2 ml ammonium acetate (pH=7.0) and eluted from columns with 4 ml ammonium acetate and measured by liquid scintillation spectrometry. […] After separation of water and organic phases, 0.6 ml of water phase was applied to Dowex columns (1.5 g of Dowex per column), washed by 20 ml of 60 mM ammonium formate/5 mM sodium borate buffer and eluted from columns with 4 ml of 1M ammonium formate/0.1 formic acid buffer and measured by liquid scintillation spectrometry.
# To exclude the possibility that the observed effects of compounds 6A and 7A are the result of overexpression in the heterologous system, functional response to the compounds was measured ex vivo in dissipated native rat tissues. […] Accumulation of cAMP was measured in M2-rich cerebellum and M4-rich striatum.
# M2 muscarinic receptor = biological target: T1, M2 muscarinic receptor (Homo sapiens, UniProt P08172); assay: accumulation of IPX, M2 CHO cells with promiscuous G15 G-protein (M2Gq+G15); format: cell-based; parameters: expressed in transfected cells; host or cells: CHO cells, pCMV/hygro vector, hygromycin selection; settings: for E′MAX / τ / Δlog(τ/KA) / RAi: M2Gq ± G15 (↑IPX); for E′MAX / τ: Table 8; for Δlog(τ/KA): Table 8, to carbachol; for accumulation of IPX: M2 co-transfected with G15, in words; for RAi: Table 8, relative to carbachol
# T1 sequence (P08172 1-466): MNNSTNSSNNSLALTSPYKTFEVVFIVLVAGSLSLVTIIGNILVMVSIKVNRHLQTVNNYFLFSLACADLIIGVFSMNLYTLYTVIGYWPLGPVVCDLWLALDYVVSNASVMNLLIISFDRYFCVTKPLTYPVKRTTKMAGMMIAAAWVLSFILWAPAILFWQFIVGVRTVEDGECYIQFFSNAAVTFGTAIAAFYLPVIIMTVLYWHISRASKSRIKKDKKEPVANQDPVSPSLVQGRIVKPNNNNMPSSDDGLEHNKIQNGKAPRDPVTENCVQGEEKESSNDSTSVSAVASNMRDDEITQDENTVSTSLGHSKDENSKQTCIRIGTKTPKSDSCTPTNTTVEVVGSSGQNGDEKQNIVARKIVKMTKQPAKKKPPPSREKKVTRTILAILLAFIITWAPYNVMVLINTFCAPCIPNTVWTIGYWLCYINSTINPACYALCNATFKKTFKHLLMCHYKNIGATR
# Description: Since activation of phospholipase C (PLC) via M2 and M4 receptors is weak, cells were transferred with G15 G-protein to facilitate coupling.
# To determine level of cAMP, cells in suspension were pre-incubated for 1 h with 0.4 μM [^3H]adenine, washed, and incubated for 10 min in the presence of isobutylmethylxanthine and 10 μM forskolin. […] Incubation was ended by addition of 0.2 ml of 2.5 M HCl to the samples. Samples were applied to alumina columns (1.5 g of alumina per column), washed with 2 ml ammonium acetate (pH=7.0) and eluted from columns with 4 ml ammonium acetate and measured by liquid scintillation spectrometry. […] The incubation was stopped by addition of 0.5 ml of chloroform methanol HCl mixture (2:1:0.1). After separation of water and organic phases, 0.6 ml of water phase was applied to Dowex columns (1.5 g of Dowex per column), washed by 20 ml of 60 mM ammonium formate/5 mM sodium borate buffer and eluted from columns with 4 ml of 1M ammonium formate/0.1 formic acid buffer and measured by liquid scintillation spectrometry.
# Measurements of the production of cAMP and inositol phosphates: Levels of second messengers cAMP and inositol phosphates were determined in radiochemical chromatography assays as described previously. To determine level of cAMP, cells in suspension were pre-incubated for 1 h with 0.4 μM [^3H]adenine, washed, and incubated for 10 min in the presence of isobutylmethylxanthine and 10 μM forskolin. […] Incubation was ended by addition of 0.2 ml of 2.5 M HCl to the samples. Samples were applied to alumina columns (1.5 g of alumina per column), washed with 2 ml ammonium acetate (pH=7.0) and eluted from columns with 4 ml ammonium acetate and measured by liquid scintillation spectrometry. […] For this purpose, new CHO cell lines stably expressing promiscuous G15 G-protein and M2 or M4 receptor were generated by transfection with pCMV/hygro vector and hygromycin selection. To determine the rate of formation of inositol phosphates IPX, suspended cells were pre-incubated with 0.1 μM [^3H]myo-inositol for 60 min, washed, and incubated with 10 mM LiCl for 15 min. […] The incubation was stopped by addition of 0.5 ml of chloroform methanol HCl mixture (2:1:0.1). After separation of water and organic phases, 0.6 ml of water phase was applied to Dowex columns (1.5 g of Dowex per column), washed by 20 ml of 60 mM ammonium formate/5 mM sodium borate buffer and eluted from columns with 4 ml of 1M ammonium formate/0.1 formic acid buffer and measured by liquid scintillation spectrometry.
# For bi-phasic response, curves were inhibitory and stimulatory phase were fitted separately. Operational Model of Functional Agonism
# [formula] where y is functional response at concentration of tested compound x, EMAX is maximal response of the system, KA is equilibrium dissociation constant and nH is slope factor. Eq. 5 was fitted to data from functional experiments. Eq. 5 was fitted to data by the two-step procedure described earlier. […] In the second step, Eq. 5 with EMAX fixed to the value determined in the first step was fitted to individual experimental data sets. Relative Intrinsic Activity
# Muscarinic receptors are also able to stimulate non-preferential signalling pathways.
Compound,accumulation of IPX [1],E′MAX (M2 muscarinic receptor) [fold over basal],τ (M2 muscarinic receptor),Δlog(τ/KA) (M2 muscarinic receptor),accumulation of IPX (M2 muscarinic receptor),RAi (M2 muscarinic receptor),EC50 (M2 muscarinic receptor) [µM],Kd (M2 muscarinic receptor) [µM]
"C[N+](C)(C)CCOC(N)=O [carbachol, reference compound]",profound accumulation of IPX,4.9 ± 0.3,4.5 ± 0.5,0,stimulated accumulation of IPX,,,
"C[N+]1(Cc2cccs2)CC=CCC1.[I-] (centres unmarked) [Compound 7A, 1-methyl-1-[(thiophen-2-yl)methyl]-1,2,3,6-tetrahydropyridin-1-ium iodide]",negligible increase in IPX,,,,did not stimulate IPX accumulation,0,,
"C1=CCN(Cc2cccs2)CC1.Cl [Compound 6A, 1-[(thiophen-2-yl)methyl]-1,2,3,6-tetrahydropyridin-1-ium chloride]",negligible increase in IPX,,,,did not stimulate IPX accumulation,0,,
"O=C1CCCN1CC#CCN1CCCC1 [oxotremorine, reference compound]",,4.1 ± 0.3,1.9 ± 0.2,−0.38 ± 0.05,,2.41 ± 0.22,0.0708,0.2
